In ChEMBL document CHEMBL1201862, “PubChem BioAssay data set” (2004):
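Briefly, cells in 96-well plates were exposed to five compound concentrations for 48 h, and endpoints were estimated by linear interpolation. GI50: concentration for 50% inhibition of growth.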 Calls of active or inactive are those of the source. No stated cut-off is given here; in the data, active = GI50 up to about 1.1 µM and inactive = higher.

Legend:
Assay in all cases: NCI-60 cell line screen, 48 h
SK-OV-3 = system: SK-OV-3
SK-MEL-2 = system: SK-MEL-2
SK-MEL-28 = system: SK-MEL-28
HCC 2998 = system: HCC 2998
UO-31 = system: UO-31
RXF 393 = system: RXF 393
TK-10 = system: TK-10
SW-620 = system: SW-620
BT-549 = system: BT-549
NCI-H23 = system: NCI-H23
IGROV-1 = system: IGROV-1
ACHN = system: ACHN
SF-268 = system: SF-268
A549 = system: A549
K562 = system: K562
EKVX = system: EKVX
PC-3 = system: PC-3
UACC-257 = system: UACC-257
A498 = system: A498
OVCAR-5 = system: OVCAR-5
NCI/ADR-RES = system: NCI/ADR-RES
SNB-75 = system: SNB-75
LOX IMVI = system: LOX IMVI
MDA-N = system: MDA-N
CAKI-1 = system: CAKI-1
KM12 = system: KM12
MDA-MB-435 = system: MDA-MB-435
MCF7 = system: MCF7
DU-145 = system: DU-145
SN12C = system: SN12C
M14 = system: M14
SR = system: SR
OVCAR-3 = system: OVCAR-3
HT-29 = system: HT-29
T47D = system: T47D
HCT-15 = system: HCT-15
MDA-MB-231 = system: MDA-MB-231
COLO 205 = system: COLO 205
786-0 = system: 786-0
HCT-116 = system: HCT-116
UACC-62 = system: UACC-62
SNB-19 = system: SNB-19
SF-295 = system: SF-295
NCI-H460 = system: NCI-H460
HOP-92 = system: HOP-92
U-251 = system: U-251
OVCAR-4 = system: OVCAR-4
RPMI-8226 = system: RPMI-8226
SK-MEL-5 = system: SK-MEL-5
NCI-H226 = system: NCI-H226
Malme-3M = system: Malme-3M
OVCAR-8 = system: OVCAR-8
NCI-H522 = system: NCI-H522
HOP-62 = system: HOP-62
Hs-578T = system: Hs-578T
CCRF-CEM = system: CCRF-CEM
HL-60 = system: HL-60
MOLT-4 = system: MOLT-4
SF-539 = system: SF-539

CC(CSC(=N)N)C(N)=O (stereo unspecified)
GI50 (SK-OV-3): > 100 µM (inactive)
GI50 (SK-MEL-2): > 100 µM (inactive)
GI50 (SK-MEL-28): > 100 µM (inactive)
GI50 (HCC 2998): > 100 µM (inactive)
GI50 (UO-31): > 100 µM (inactive)
GI50 (RXF 393): > 100 µM (inactive)
GI50 (TK-10): > 100 µM (inactive)
GI50 (SW-620): > 100 µM (inactive)
GI50 (BT-549): > 100 µM (inactive)
GI50 (NCI-H23): > 100 µM (inactive)
GI50 (IGROV-1): > 100 µM (inactive)
GI50 (ACHN): > 100 µM (inactive)
GI50 (SF-268): > 100 µM (inactive)
GI50 (A549): > 100 µM (inactive)
GI50 (K562): > 100 µM (inactive)
GI50 (EKVX): > 100 µM (inactive)
GI50 (PC-3): > 100 µM (inactive)
GI50 (UACC-257): > 100 µM (inactive)
GI50 (A498): > 100 µM (inactive)
GI50 (OVCAR-5): > 100 µM (inactive)
GI50 (NCI/ADR-RES): > 100 µM (inactive)
GI50 (SNB-75): > 100 µM (inactive)
GI50 (LOX IMVI): > 100 µM (inactive)
GI50 (MDA-N): > 100 µM (inactive)
GI50 (CAKI-1): > 100 µM (inactive)
GI50 (KM12): > 100 µM (inactive)
GI50 (MDA-MB-435): > 100 µM (inactive)
GI50 (MCF7): > 100 µM (inactive)
GI50 (DU-145): > 100 µM (inactive)
GI50 (SN12C): > 100 µM (inactive)
GI50 (M14): > 100 µM (inactive)
GI50 (SR): > 100 µM (inactive)
GI50 (OVCAR-3): > 100 µM (inactive)
GI50 (HT-29): > 100 µM (inactive)
GI50 (T47D): > 100 µM (inactive)
GI50 (HCT-15): > 100 µM
GI50 (MDA-MB-231): > 100 µM (inactive)
GI50 (COLO 205): > 100 µM (inactive)
GI50 (786-0): > 100 µM (inactive)
GI50 (HCT-116): > 100 µM (inactive)
GI50 (UACC-62): > 100 µM (inactive)
GI50 (SNB-19): > 100 µM (inactive)
GI50 (SF-295): > 100 µM (inactive)
GI50 (NCI-H460): > 100 µM (inactive)
GI50 (HOP-92): > 100 µM (inactive)
GI50 (U-251): > 100 µM (inactive)
GI50 (OVCAR-4): > 100 µM (inactive)
GI50 (RPMI-8226): > 100 µM (inactive)
GI50 (SK-MEL-5): > 100 µM (inactive)
GI50 (NCI-H226): > 100 µM (inactive)
GI50 (Malme-3M): > 100 µM (inactive)
GI50 (OVCAR-8): > 100 µM (inactive)
GI50 (NCI-H522): > 100 µM (inactive)
GI50 (HOP-62): > 100 µM (inactive)
GI50 (Hs-578T): > 100 µM (inactive)
GI50 (CCRF-CEM): > 100 µM (inactive)
GI50 (HL-60): > 100 µM (inactive)

O=P1(C(O)/C=C/c2ccccc2)N(Cc2ccccc2)[C@H](c2ccccc2)[C@@H](c2ccccc2)N1Cc1ccccc1 (stereo partly specified)
GI50 (SK-OV-3): 22.5 µM (inactive)
GI50 (SK-MEL-2): 14.1 µM (inactive)
GI50 (SK-MEL-28): 35.2 µM (inactive)
GI50 (HCC 2998): 19.6 µM (inactive)
GI50 (UO-31): 12.5 µM (inactive)
GI50 (RXF 393): 21.3 µM (inactive)
GI50 (TK-10): 26 µM (inactive)
GI50 (SW-620): 26.1 µM (inactive)
GI50 (BT-549): 28.6 µM (inactive)
GI50 (NCI-H23): 13.1 µM (inactive)
GI50 (IGROV-1): 2.24 µM (inactive)
GI50 (ACHN): 27.4 µM (inactive)
GI50 (SF-268): 23.8 µM (inactive)
GI50 (A549): 6.92 µM (inactive)
GI50 (K562): 7.85 µM (inactive)
GI50 (EKVX): 11.7 µM (inactive)
GI50 (PC-3): 7.55 µM (inactive)
GI50 (UACC-257): 8.97 µM (inactive)
GI50 (A498): 37.7 µM (inactive)
GI50 (OVCAR-5): 21.8 µM (inactive)
GI50 (MOLT-4): 2.61 µM (inactive)
GI50 (NCI/ADR-RES): 26 µM (inactive)
GI50 (SNB-75): 19 µM (inactive)
GI50 (LOX IMVI): 17.5 µM (inactive)
GI50 (MDA-N): 16.5 µM (inactive)
GI50 (CAKI-1): 17.1 µM (inactive)
GI50 (KM12): 17 µM (inactive)
GI50 (MDA-MB-435): 19.3 µM (inactive)
GI50 (MCF7): 12 µM (inactive)
GI50 (DU-145): 38.5 µM (inactive)
GI50 (SN12C): 13.6 µM (inactive)
GI50 (M14): 14.4 µM (inactive)
GI50 (SR): 4.75 µM (inactive)
GI50 (OVCAR-3): 16.9 µM (inactive)
GI50 (HT-29): 14.2 µM (inactive)
GI50 (T47D): 7.13 µM (inactive)
GI50 (HCT-15): 32.1 µM
GI50 (MDA-MB-231): 17.3 µM (inactive)
GI50 (COLO 205): 11.9 µM (inactive)
GI50 (786-0): 23.7 µM (inactive)
GI50 (HCT-116): 8.15 µM (inactive)
GI50 (UACC-62): 11 µM (inactive)
GI50 (SNB-19): 24.3 µM (inactive)
GI50 (SF-295): 14 µM (inactive)
GI50 (NCI-H460): 15 µM (inactive)
GI50 (HOP-92): 11 µM (inactive)
GI50 (SF-539): > 51.3 µM (inactive)
GI50 (U-251): 19.9 µM (inactive)
GI50 (OVCAR-4): 13 µM (inactive)
GI50 (RPMI-8226): 3.63 µM (inactive)
GI50 (SK-MEL-5): 14.7 µM (inactive)
GI50 (NCI-H226): 36.6 µM (inactive)
GI50 (Malme-3M): 27.8 µM (inactive)
GI50 (OVCAR-8): 10.2 µM (inactive)
GI50 (NCI-H522): 4.9 µM (inactive)
GI50 (HOP-62): 29.8 µM (inactive)
GI50 (Hs-578T): 26.2 µM (inactive)
GI50 (CCRF-CEM): 10.5 µM (inactive)
GI50 (HL-60): 6.87 µM (inactive)
